Key:
[1] = system: Saccharomyces cerevisiae wild type strain BY4743; assay: AF1 combined gene expression and metabolite data mapped to KEGG reactions and pathways, cluster analysis; type: cell-based
Source text: In AF1, two different technologies were utilized: gene expression analysis (for examination of mRNA expression) and metabolite analysis. […] As noted previously, existing metabolic databases may be helpful in practicing the methods and systems of the present invention, but many databases include limitations that make their use in data analysis and pathway mapping less than straightforward. […] This caveat to KEGG makes it difficult to pinpoint the correct pathway when attempting to link a gene to a specific pathway. […] The pathway score indicates how meaningful the mapping is, or how likely it is to be correctly indicative of the pathway involved in the perturbation under examination. […] Degree of perturbation can be calculated, for example, based on a number of standard deviations from a norm, and included in an equation such as the one shown above, so that not only the number of pathways is taken into account, but also accounts for the amount of gene transcript or compound present as compared to a control. […] KEGG links 676 compounds measured in AF1 to a total of 92 pathways. Of the 676 compounds under consideration, 77 were detected in the AF1 samples. […]

[2] = system: Saccharomyces cerevisiae wild type strain BY4743; assay: AF1 metabolite analysis (GC-MS, LC-MS) of yeast cells treated with antifungal drugs; type: cell-based

C[C@@H]1[C@H](O)[C@@H](C)/C=C/C=C/C=C/C=C/C=C/C=C/C=C/[C@H](O[C@@H]2O[C@H](C)[C@@H](O)[C@H](N)[C@@H]2O)C[C@@H]2O[C@](O)(C[C@@H](O)C[C@@H](O)[C@H](O)CC[C@@H](O)C[C@@H](O)CC(=O)O[C@H]1C)C[C@H](O)[C@H]2C(=O)O [Amphoteracin B]
0: Fold Change: campesterol ([2]; GC) | Fold Change: desmosterol ([2]; GC) | Fold Change: abscisic acid ([2]; LC) | Fold Change: adenosine ([2]; LC) | Fold Change: riboflavin ([2]; LC) | Fold Change: 4-methylcatechol ([2]; nLC) | Fold Change: 5hydroxyLtryptophan ([2]; nLC) | Fold Change: 6-benzylaminopurine ([2]; nLC) | Fold Change: NacetylDglucosamine ([2]; nLC) | Fold Change: NacetylLornithine ([2]; nLC) | Fold Change: abscisic acid ([2]; nLC) | Fold Change: adenine ([2]; nLC) | Fold Change: adenosine ([2]; nLC) | Fold Change: anthranilic acid ([2]; nLC) | Fold Change: argininosuccinate ([2]; nLC) | Fold Change: benzoic acid ([2]; nLC) | Fold Change: catechol ([2]; nLC) | Fold Change: cinnamic acid ([2]; nLC) | Fold Change: citricanoic/itaconi ([2]; nLC) | Fold Change: coumaric acid ([2]; nLC) | Fold Change: cytosine ([2]; nLC) | Fold Change: diaminopimelic acid ([2]; nLC) | Fold Change: dihydrofolic acid ([2]; nLC) | Fold Change: estrone ([2]; nLC) | Fold Change: farnesol ([2]; nLC) | Fold Change: folic acid ([2]; nLC) | Fold Change: gibberellic ([2]; nLC) | Fold Change: guanine ([2]; nLC) | Fold Change: histidine ([2]; nLC) | Fold Change: homogentisic/uric ([2]; nLC) | Fold Change: hydrocortisone ([2]; nLC) | Fold Change: indole3pyruvic acid ([2]; nLC) | Fold Change: jasmonic acid ([2]; nLC) | Fold Change: kinetin ([2]; nLC) | Fold Change: luteolin ([2]; nLC) | Fold Change: malonic acid ([2]; nLC) | Fold Change: methionine ([2]; nLC) | Fold Change: phenylpyruvic acid ([2]; nLC) | Fold Change: phosphoenolpyruvate ([2]; nLC) | Fold Change: pinitol ([2]; nLC) | Fold Change: porphobilinogen ([2]; nLC) | Fold Change: retinoic acid ([2]; nLC) | Fold Change: salicylic/HObenzoic ([2]; nLC) | Fold Change: shikimic acid ([2]; nLC) | Fold Change: sinapinic acid ([2]; nLC) | Fold Change: thymine ([2]; nLC) | Fold Change: 4-aminobenzoic acid ([2]; pLC) | Fold Change: 4-methylcatechol ([2]; pLC) | Fold Change: 5hydroxyLtryptophan ([2]; pLC) | Fold Change: 6benzylaminopurine ([2]; pLC) | Fold Change: NacetylDglucosamine ([2]; pLC) | Fold Change: NacetylLglutamate ([2]; pLC) | Fold Change: allantoic acid ([2]; pLC) | Fold Change: anthranilic acid ([2]; pLC) | Fold Change: argininosuccinate ([2]; pLC) | Fold Change: biotin ([2]; pLC) | Fold Change: caffeine ([2]; pLC) | Fold Change: citric acid TME ([2]; pLC) | Fold Change: cytidine ([2]; pLC) | Fold Change: cytosine ([2]; pLC) | Fold Change: diaminopimelic acid ([2]; pLC) | Fold Change: dihydrofolic acid ([2]; pLC) | Fold Change: dipicolinic acid ([2]; pLC) | Fold Change: folic acid ([2]; pLC) | Fold Change: glucosamine ([2]; pLC) | Fold Change: glucosamine6PO4 ([2]; pLC) | Fold Change: histidine ([2]; pLC) | Fold Change: hydrocortisone ([2]; pLC) | Fold Change: itaconic acid dimes ([2]; pLC) | Fold Change: kinetin ([2]; pLC) | Fold Change: luteolin ([2]; pLC) | Fold Change: niacinamide ([2]; pLC) | Fold Change: nopaline ([2]; pLC) | Fold Change: phosphoenolpyruvate ([2]; pLC) | Fold Change: progesterone ([2]; pLC) | Fold Change: sugar-phosphate ([2]; pLC) | Fold Change: thiamine ([2]; pLC) | Fold Change: thymine ([2]; pLC) | Fold Change: tryptophan ([2]; pLC)
54: # Reactions Having an Enzyme and at Least One Compound Perturbed [1]
0.21: Fold Change: octadecanoic acid ([2]; GC)
not: squalene and lanosterol in treated yeast cells ([2]; AF1, 2×MIC, two hours)

— patent publication US6873914B2, “Methods and systems for analyzing complex biological systems” (Icoria, Inc., priority 2001, dated 2005)
